Assay [1] has as its system cancerous tissue. Nature of the assay: Preclinical / animal model studies: duration of VGT-309 fluorescence in tissue after administration. The class given is in vivo. From the text: There are several molecular imaging agents that are currently in various stages of development and testing, but of these agents VGT-309 is particularly advantageous. VGT-309 targets and covalently binds to cathepsin targets, which are present in larger amounts in solid tumors and tumor margins than in normal tissues. When this binding occurs, the quencher is cleaved from the molecule and VGT-309 becomes “active” at which point the tumor will fluoresce under near-infrared (NIR) light.

Assay [2] has as its system tumor. As to the kind of experiment: Intraoperative NIR imaging of patients given intravenous VGT-309 before surgery (Examples 1-3). The format is in vivo, human.
For assay [3], the system named is tumor. As to the kind of experiment: Phase 2 study: clinically significant events (CSEs) during tumor removal with imaging agent and NIR. The class given is in vivo, human. Conditions: Phase 2 study of VGT-309 in Australia. From the text: CSEs are one way to measure whether an imaging agent, such as VGT-309, adds a clinical benefit to the diagnosis and treatment process. In this context, CSEs generally fall into one of three categories: (1) localization of hard-to-find tumors, (2) identification of positive resection margins, and (3) identification of additional primary and metastatic lesions that were not previously detected using existing technologies.

Turning to `CC1(C)C(/C=C/C2=C(Cl)C(=C/C=C3/N(CCCCCC(=O)NCCNC(=O)c4c(F)c(F)c(OCC(=O)[C@H](CCCCNC(=O)CCCCCN5/C(=C/C=C/C=C/C=C\C6=[N+](CCCCS(=O)(=O)[O-])c7ccc8ccccc8c7C6(C)C)C(C)(C)c6c5ccc5ccccc65)NC(=O)[C@H](Cc5ccccc5)NC(=O)OCc5ccccc5)c(F)c4F)c4ccc5cc(S(=O)(=O)O)ccc5c4C3(C)C)/CCC2)=[N+](CCCS(=O)(=O)[O-])c2ccc(N(CCCS(=O)(=O)O)CCCS(=O)(=O)O)cc21` [VGT-309], the “time VGT-309 may continue to emit a signal in tissue following administration” value in assay [1] (animal model studies suggest) is “out to seven days”. Also, the “time window after administration in which VGT-309 can fluoresce cancerous tissue” value in assay [1] (based on preclinical studies, under NIR light) was “two hours to four days”. The “visualization of tumor under NIR imaging” value in assay [2] (Example 1, patient, 0.32 mg/kg approximately 21 hours prior to surgery) is “clearly show the location and extent of the tumor”. The “localization of primary tumor under NIR” value in assay [2] (Example 2, patient, 0.16 mg/kg approximately 21 hours prior to surgery) is listed as “more easily locate the primary tumor”. Also, the “detection of lymph node spread by fluorescence under NIR” value in assay [2] (Example 2, patient, 0.16 mg/kg approximately 21 hours prior to surgery, biopsy confirmed that the cancer had spread) is “unexpected fluorescence in a more distant lymph node”. In assay [2] (Example 3, patient with regrowth after radiation, 0.32 mg/kg approximately 18.5 hours prior to surgery), the “identification of previously identified (primary) tumor” value was “able to quickly identify and remove the previously identified tumor”. Moreover, the “identification of additional tumors (metastatic spread) using NIR” value in assay [2] (Example 3, patient, 0.32 mg/kg approximately 18.5 hours prior to surgery, abnormal lung tissue confirmed cancerous under NIR) is “able to identify additional tumors using NIR”. Moreover, the “fraction of patients who experienced a clinically significant event (CSE)” value in assay [3] is on record as “one third”.

Values taken from patent US20240389846A1, “Methods for Localization of Cancerous Tissue Using Fluorescent Molecular Imaging Agent for Diagnosis or Treatment” (Vergent Bioscience, Inc., priority 2022, published 2024).
